# Molecular target: T1, InhA (enoyl-acyl carrier protein reductase) (Mycobacterium tuberculosis, UniProt P9WGR1)
# T1 construct: wild-type InhA
# Assay: biochemical
# T1 sequence (P9WGR1 whole entry, looked up): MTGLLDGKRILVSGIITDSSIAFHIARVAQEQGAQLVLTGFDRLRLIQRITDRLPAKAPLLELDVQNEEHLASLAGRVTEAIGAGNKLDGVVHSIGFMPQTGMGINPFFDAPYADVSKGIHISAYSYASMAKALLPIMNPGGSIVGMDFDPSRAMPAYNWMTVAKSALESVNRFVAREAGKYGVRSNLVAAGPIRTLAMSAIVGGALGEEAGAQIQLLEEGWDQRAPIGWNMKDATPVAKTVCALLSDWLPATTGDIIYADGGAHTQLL
smiles,measurement,value
CCN(CC)C(=O)/C(C#N)=C/c1cc(O)c(O)c([N+](=O)[O-])c1 [entacapone],IC50,79 ± 10 µM

# Reference: article PMC2699117, “Drug Discovery Using Chemical Systems Biology: Repositioning the Safe Medicine Comtan to Treat Multi-Drug and Extensively Drug Resistant Tuberculosis” (PLoS Computational Biology, 2009)
